Molecular target: T1, SMYD3 (Homo sapiens, UniProt Q9H7B4)
T1 sequence (Q9H7B4 1-428): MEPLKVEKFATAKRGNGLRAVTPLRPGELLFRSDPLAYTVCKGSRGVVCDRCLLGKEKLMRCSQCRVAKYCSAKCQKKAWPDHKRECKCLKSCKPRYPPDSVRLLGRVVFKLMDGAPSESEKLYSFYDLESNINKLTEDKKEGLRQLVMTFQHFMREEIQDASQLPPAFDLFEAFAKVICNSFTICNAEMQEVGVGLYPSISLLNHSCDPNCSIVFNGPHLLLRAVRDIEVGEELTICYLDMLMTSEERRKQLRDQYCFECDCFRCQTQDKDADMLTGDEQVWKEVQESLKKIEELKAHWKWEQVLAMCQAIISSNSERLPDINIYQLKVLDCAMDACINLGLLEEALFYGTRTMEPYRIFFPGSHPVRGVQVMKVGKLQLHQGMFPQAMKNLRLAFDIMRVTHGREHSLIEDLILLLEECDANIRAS
Assay: LC-MS methyltransferase assay, MAP3K2 […]-274 peptide, inhibition at […]
Format: biochemical
Conditions: 0.63 µM

In the case of `O=C1Cc2cc(C(=O)NC3C[C@H]4CC[C@@H](C3)N4S(=O)(=O)CC3CCN(CCCC(F)(F)F)CC3)c(Cl)cc2N1` (stereo partly shown) [EPZ031686], the “Inhibition [%]” value is reported as 52.8±1.7.
